Measurements taken from patent publication US8044211B2 (Chroma Therapeutics Ltd., priority 2006, dated 2011).
Like-named read-outs stand apart in the source and are kept apart here.

Tests used:
p38 MAP Kinase a = molecular target: T1, p38 MAP Kinase a (Homo sapiens, UniProt Q16539); assay: p38 MAP Kinase activity, radiometric filter-binding assay (Upstate); assay type: biochemical; conditions: IC50 range; ATP at or close to Km; read-out: Inhibitor activity versus p38 MAPKa
T1 construct: purchased Upstate (Dundee UK)
T1 sequence (Q16539 whole entry): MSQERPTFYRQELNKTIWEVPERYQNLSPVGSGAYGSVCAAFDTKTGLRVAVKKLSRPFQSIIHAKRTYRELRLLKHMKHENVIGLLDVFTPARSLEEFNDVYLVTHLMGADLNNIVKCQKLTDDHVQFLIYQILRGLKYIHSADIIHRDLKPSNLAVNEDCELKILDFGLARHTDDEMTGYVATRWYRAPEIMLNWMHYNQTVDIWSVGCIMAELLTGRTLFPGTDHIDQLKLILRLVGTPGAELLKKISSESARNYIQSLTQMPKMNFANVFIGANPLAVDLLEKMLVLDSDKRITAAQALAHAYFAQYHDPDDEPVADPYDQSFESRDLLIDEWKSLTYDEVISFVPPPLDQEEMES
Summary of the method: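 Human p38 MAP kinase α (5-10 mU) with 0.33 mg/mL myelin basic protein, 25 mM Tris pH 7.5, 0.002 mM EGTA, 10 mM Mg acetate and [γ-33P]ATP at or near Km; 40 min at RT. Phosphoric acid stop, P30 filter binding and scintillation counting; IC50 from 9-step ⅓-log dilutions from 10 μM top concentration, duplicates.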

THP-1 TNFα release = assay: LPS-stimulation of THP-1 cells, TNF-α by ELISA; assay type: cell-based; conditions: IC50 range, LPS 1 μg/ml, 6 hrs, read-out: Inhibitor activity versus THP-1 TNFα release
Procedure: THP-1 cells were plated in 100 μl at a density of 4×10^4 cells/well in V-bottomed 96 well tissue culture treated plates and incubated at 37° C. in 5% CO2 for 16 hrs. 2 hrs after the addition of the inhibitor in […], of tissue culture media, the cells were stimulated with LPS (E. coli strain 005:B5, Sigma) at a final concentration of 1 μg/ml and incubated at 37° C. in 5% CO2 for 6 hrs. TNF-α levels were measured from cell-free supernatants by sandwich ELISA (R&D Systems #QTA00B).

[1] = test system: human whole blood TNFα release; assay: LPS-stimulation of human whole blood, TNF-α by ELISA; assay type: cell-based; conditions: IC50 range, LPS 100 ng/ml, 6 hrs, read-out: Inhibitor activity versus human whole blood TNFα release
Procedure: Whole blood was taken by venous puncture using heparinised vacutainers (Becton Dickinson) and diluted in an equal volume of RPMI 1640 tissue culture media (Sigma). 100 μl was plated in V-bottomed 96 well tissue culture treated plates. 2 hrs after the addition of the inhibitor in 100 μl of RPMI 1640 media, the blood was stimulated with LPS (E. coli strain 005:B5, Sigma) at a final concentration of 100 ng/ml and incubated at 37° C. in 5% CO2 for 6 hrs. TNF-α levels were measured from cell-free supernatants by sandwich ELISA (R&D Systems #QTA00B)

Compound	IC50 (p38 MAP Kinase a)	IC50 (THP-1 TNFα release; Homo sapiens, THP-1)	IC50 [1]	IC50 (THP-1 TNFα release)
CC(C)(C)OC(=O)[C@@H](NCCCOc1cc(F)c(-n2c(N)c(C(=O)c3ccc(F)cc3F)ccc2=O)c(F)c1)C1CCCCC1 [Example 49, tert-Butyl (2S)-[(3-{4-[6-amino-5-(2,4-difluorobenzoyl)-2-oxopyridin-1(2H)-yl]-3,5-difluorophenoxy}propyl)amino](cyclohexyl)acetate]	< 100 nM	100 to 1000 nM	> 1000 nM	
Nc1c(C(=O)c2ccc(F)cc2F)ccc(=O)n1-c1c(F)cc(OCCCN[C@H](C(=O)OC2CCCC2)c2ccccc2)cc1F [Example 20, Cyclopentyl(S)-(3-{4-[6-Amino-5-(2,4-difluorobenzoyl)-2-oxo-2H-pyridin-1-yl]-3,5-difluorophenoxy}propylamino)phenyl acetate]	< 100 nM	< 100 nM	100 to 1000 nM	
Nc1c(C(=O)c2ccc(F)cc2F)ccc(=O)n1-c1c(F)cc(OCCCN[C@@H](Cc2ccccc2)C(=O)OC2CCCC2)cc1F [Example 21, Cyclopentyl(S)-2-(3-{4-[6-Amino-5-(2,4-difluorobenzoyl)-2-oxo-2H-pyridin-1-yl]-3,5-difluorophenoxy}-propylamino)-3-phenyl propionate]	< 100 nM	< 100 nM	> 1000 nM	
CC(C)(C)OC(=O)[C@@H](NCCCOc1cc(F)c(-n2c(N)c(C(=O)c3ccc(F)cc3F)ccc2=O)c(F)c1)c1ccccc1 [Example 36, tert-Butyl(S)-(3-{4-[6-Amino-5-(2,4-difluorobenzoyl)-2-oxo-2H-pyridin-1-yl]-3,5-difluorophenoxy}propylamino)phenyl acetate]	< 100 nM	< 100 nM	> 1000 nM	
CC(C)C[C@H](NCCCc1ccc(-n2c(N)c(C(=O)c3ccc(F)cc3)ccc2=O)cc1)C(=O)OC1CCCC1 [Example 67, Cyclopentyl N-[3-(4-{6-amino-5-[(4-fluorophenyl)carbonyl]-2-oxopyridin-1(2H)-yl}phenyl)propyl]-L-leucinate]	100 to 1000 nM	100 to 1000 nM	> 1000 nM	
Cc1cc(C(=O)c2ccc(=O)n(-c3ccc(CN[C@@H](Cc4ccccc4)C(=O)OC4CCCC4)cc3)c2N)ccc1F [Example 5, Cyclopentyl(S)-2-{4-[6-Amino-5-(3-methyl-4-fluorobenzoyl)-2-oxo-2H-pyridin-1-yl]benzylamino}-3-phenylpropionate]	100 to 1000 nM	> 1000 nM		
CC(C)C[C@@H](NCCCOc1cc(F)c(-n2c(N)c(C(=O)c3ccc(F)cc3F)ccc2=O)c(F)c1)C(=O)OC1CCCC1 [Example 50, Cyclopentyl N-(3-{4-[6-amino-5-(2,4-difluorobenzoyl)-2-oxopyridin-1(2H)-yl]-3,5-difluorophenoxy}propyl)-D-leucinate]	< 100 nM	< 100 nM		
CC(C)C[C@H](NCCCOc1ccc(-n2c(N)c(C(=O)c3ccc(F)cc3)ccc2=O)c(F)c1)C(=O)OC1CCCC1 [Example 66, Cyclopentyl N-[3-(4-{6-amino-5-[(4-fluorophenyl)carbonyl]-2-oxopyridin-1(2H)-yl}-3-fluorophenoxy)propyl]-L-leucinate]	100 to 1000 nM	100 to 1000 nM		
tert-Butyl(S)-(3-{4-[6-Amino-5-(4-difluoro benzoyl)-2-oxo-2H-pyridin-1-yl]-3,5-difluorophenoxy}propylamino)phenyl acetate [Example 45]	< 100 nM			< 100 nM
CC(C)C[C@H](NCCCOc1ccc(-n2c(N)c(C(=O)c3ccc(F)cc3F)ccc2=O)cc1)C(=O)OC1CCCC1 [Example 30, Cyclopentyl(S)-2-(3-{4-[6-Amino-5-(2,4-difluorobenzoyl)-2-oxo-2H-pyridin-1-yl]phenoxy}propylamino)-4-methyl pentanoate]	< 100 nM	< 100 nM		
Cc1cc(C(=O)c2ccc(=O)n(-c3ccc(OCCCN[C@H](C(=O)OC4CCCC4)c4ccccc4)cc3)c2N)ccc1F [Example 26]	< 100 nM	100 to 1000 nM		
O=C(c1ccc(F)cc1)c1ccc(=O)[nH]c1Nc1c(F)cc(CN[C@@H](Cc2ccccc2)C(=O)OC2CCCC2)cc1F [Example 71, Cyclopentyl(S)-2-[3,5-Difluoro-4-[3-(4-fluorobenzoyl)-6-oxo-1,6-dihydropyridin-2-ylamino]benzylamino]-3-phenylpropionate]	< 100 nM	> 1000 nM		
CC(C)C[C@@H](NCCCOc1cc(F)c(-n2c(N)c(C(=O)c3ccc(F)cc3F)ccc2=O)c(F)c1)C(=O)OC(C)(C)C [Example 51, tert-Butyl N-(3-{4-[6-amino-5-(2,4-difluorobenzoyl)-2-oxopyridin-1(2H)-yl]-3,5-difluorophenoxy}propyl)-D-leucinate]	< 100 nM	< 100 nM		
Cc1cc(C(=O)c2ccc(=O)n(-c3ccc(CN[C@H](C(=O)OC4CCCC4)c4ccccc4)cc3)c2N)ccc1F [Example 4, Cyclopentyl(S)-{4-[6-Amino-5-(3-methyl-4-fluorobenzoyl)-2-oxo-2H-pyridin-1-yl]benzylamino}phenylacetate]	100 to 1000 nM	> 1000 nM		

Now from value to compound, other results behind:

IC50 (p38 MAP Kinase a)	IC50 (THP-1 TNFα release; Homo sapiens, THP-1)	IC50 [1]	Compound	IC50 (THP-1 TNFα release)
100 to 1000 nM	< 100 nM	100 to 1000 nM	CC(C)C[C@H](NCCc1ccc(-n2c(N)c(C(=O)c3ccc(F)cc3F)ccc2=O)cc1)C(=O)OC1CCCC1 [Example 59, Cyclopentyl N-[2-(4-{6-amino-5-[(2,4-difluorophenyl)carbonyl]-2-oxopyridin-1(2H)-yl}phenyl)ethyl]-L-leucinate]	
< 100 nM	100 to 1000 nM		CC(C)C[C@H](NCCCOc1ccc(-n2c(N)c(C(=O)c3ccc(F)cc3F)ccc2=O)cc1)C(=O)OC(C)(C)C [Example 39, tert-Butyl(S)-2-(3-{4-[6-Amino-5-(2,4-difluorobenzoyl)-2-oxo-2H-pyridin-1-yl]phenoxy}propylamino)-4-methyl pentanoate]	
100 to 1000 nM	100 to 1000 nM		CC(C)(C)OC(=O)[C@@H](NCCc1ccc(-n2c(N)c(C(=O)c3ccc(F)cc3)ccc2=O)cc1)c1ccccc1 [Example 62, tert-Butyl (2S)-{[2-(4-{6-amino-5-[(4-fluorophenyl)carbonyl]-2-oxopyridin-1(2H)-yl}phenyl)ethyl]amino}(phenyl)ethanoate]	
< 100 nM	100 to 1000 nM		Nc1c(C(=O)c2ccc(F)cc2)ccc(=O)n1-c1ccc(OCCCN[C@H](C(=O)OC2CCCC2)c2ccccc2)cc1 [Example 23, Cyclopentyl(S)-(3-{4-[6-Amino-5-(4-fluorobenzoyl)-2-oxo-2H-pyridin-1-yl]-phenoxy}propylamino)phenylacetate]	
> 1000 nM	100 to 1000 nM		COc1ccc(C(=O)c2ccc(=O)n(-c3ccc(CCN[C@@H](CC(C)C)C(=O)OC4CCCC4)cc3)c2N)cc1 [Example 64, Cyclopentyl N-[2-(4-{6-amino-5-[(4-methoxyphenyl)carbonyl]-2-oxopyridin-1(2H)-yl}phenyl)ethyl]-L-leucinate]	
< 100 nM	< 100 nM		Cc1cc(C(=O)c2ccc(=O)n(-c3c(F)cc(OCCCN[C@@H](Cc4ccccc4)C(=O)OC4CCCC4)cc3F)c2N)ccc1F [Example 18, Cyclopentyl(S)-2-(3-{4-[6-Amino-5-(4-fluoro-3-methylbenzoyl)-2-oxo-2H-pyridin-1-yl]-3,5-difluorophenoxy}propylamino)-3-phenylpropionate]	
